Measured values reported in paper PMC3435281 (PLoS ONE, 2012).

Key:
naïve CD4^+ T cells = experiment: Naïve CD4+ T cells with TGF-β, flow cytometry of FoxP3 and CD39; assay type: cell-based, mouse; settings: TGF-β 2 ng/ml with SU5416 250 nM, day 3
Source text: An important role for the AHR in the immune system, and specifically T-cell differentiation, has been recognized and continues to be characterized in the literature, [7]. Some ligands of the AHR have the ability to enhance Treg differentiation from naïve T-cells (TCDD, kynurenine), while others direct differentiation towards Th17 effector cells (FICZ). […] IDO has long been known to play a role in Treg generation, and may be central to the mechanism of Dendritic Cell (DC)-directed Treg generation. We as well as others have previously shown that IDO mRNA can be induced by ligands of the AHR, and that the mechanisms of IDO-directed Treg generation may depend on the AHR [25]. […] As described in the Methods, naïve T-cells were sorted using magnetic bead separation, and placed in culture for 5 days with allogeneic pDCs separated from BALB/C mice. […]
A. Spleens were harvested from mice and processed in the standard fashion. […] Same assay as A, but mRNA for CYP1B1 and IDO were measured. […] Same assay as in C, but IDO mRNA was assessed. * - p≤0.05. * - p≤0.01. […]
Naive CD4^+ T cells were isolated using the CD4^+ CD62L Isolation Kit (Miltenyi Biotec, Auburn, CA) and an autoMACS. […] For quantitative PCR (qPCR) analysis, 2–5 × 10^5 cells were cultured in each well of a 96-well round-bottom plate coated with 0.5 µg/ml anti-CD3 and anti-CD28 overnight and then washed with PBS twice before seeding the cells. […]

[1] = tested on: AHR^fxneo/fxneo and AHR^fxneo/+ pups; experiment: In utero exposure, closure of ductus venosus (DV); assay type: in vivo, mouse; settings: dams 110 mg/kg i.p. at E18.5, examined at 4 weeks
Description: We have previously shown that genetically altered mice that express only 10% of the AHR display a patent ductus venosus (DV) in the liver in nearly all cases. We additionally identified that in utero activation of the receptor in the hypomorphs with TCDD successfully closed the DV [5]. […] At 4 weeks of age, the pups were sacrificed, and DV status was examined by hepatic perfusion with trypan blue.
Timed mating of female AHR^fxneo/+ mice to male AHR^fxneo/fxneo mice was performed. […] When the pups were 4 weeks of age, the status of the DV was determined by hepatic perfusion with Trypan Blue as previously described. Briefly, each mouse was anesthetized and its liver was flushed with PBS through the cannulated portal vein. […] Trypan blue was injected through the portal vein until the liver visibly turned blue (in the case of a closed DV) or until the dye was seen exiting the IVC without perfusing the liver (when the DV is open).

[2] = tested on: CYP1A1 (induction through AHR^d); experiment: CYP1A1 qPCR in AHR^d splenocytes; settings: AHR^d congenic on a C57BL/6J background, mouse
Description: As the above in vitro experiments were performed in cell lines, we next utilized AHR^b (C57BL/6J) and AHR^d congenic mice (on a C57BL/6J background). […] Normalized data was chosen to allow comparison of CYP1A1 upregulation to its maximum in AHR^b versus AHR^d mice.
Figure 4 Splenocytes from wild-type and AHR^d mice analyzed by qPCR for CYP1A1. […] After 4 hours they were analyzed by qPCR for CYP1A1 analysis. The curves are normalized from 0 to 100% response. […] Cos-1 cells were transfected with an AHR containing the same point mutation (valine for alanine) thought to be responsible for the low affinity of the AHR^d isoform compared to AHR^b, and compared to the wild-type AHR response. These cells also harbor a luciferase gene next to the DRE. C. Cos-1 cells were exposed to TCDD. […]
Spleen was harvested from mice at the time of euthanasia and single cell suspensions were made. […] The relative quantitation PCR for IDO1 (Mm00492586-m1) and GAPDH (4352339-E0806018) were performed in the Applied Biosystems 7900HT Fast Real-Time PCR System (Applied Biosystems), and TaqMan Universal PCR Master Mix (Applied Biosystems) was used as a reaction reagent. The relative quantitation PCR for Foxp3, CYP1A1, CYP1B1, and GAPDH were processed by the Bio-Rad iCycler (Bio-Rad) and iQ SYBR Green Supermix ([…]) was used as the reaction reagent.

AHR^d = tested on: AHR^d; set-up: method as in PMID 16242735; settings: cited from earlier work

Structure (SMILES) | CD39 in the FoxP3^+ T cells (naïve CD4^+ T cells) | FoxP3 protein expression by flow cytometry (naïve CD4^+ T cells) | closed DV, percent of pups ([1]; AHR^fxneo/+ pups) | closed DV, percent of pups ([1]; AHR^fxneo/fxneo pups) | EC50 at 4 h [2] | binding affinity of AHR^d relative to AHR^b (AHR^d)
Cc1cc(C)c(C=C2C(=O)Nc3ccccc32)[nH]1 [SU5416, 3-(3,5-dimethyl-1H-pyrrol-2-ylmethylene)-1,3-dihydro-indole-2-one] | upregulated | significantly enhanced | 100% | 59% | – | –
Clc1cc2c(cc1Cl)Oc1cc(Cl)c(Cl)cc1O2 [TCDD, 2,3,7,8-tetrachlorodibenzo-p-dioxin] | – | – | – | – | 1.89 nM | one-fifteenth to one-twentieth
